Assay results taken from USRE47689E1, “Compounds for treating spinal muscular atrophy” (PTC Therapeutics, Inc., priority 2011, dated 2019).
Read-outs that look alike come from different tables or passages of the source.

Assays:
[1] = system: SMN2 minigene (full length SMN2 minigene mRNA containing SMN2 exon 7); experiment: SMN2 minigene mRNA splicing RT-qPCR assay in cultured cells; format: cell-based, human; settings: Homo sapiens, HEK293-H, read-out: EC1.5x for production of full length SMN2 mRNA
How it was run: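 HEK293H cells stably carrying the SMN2-A minigene treated 24 h at 37° C with compound (DMSO, 200× stock), then lysed. Multiplex RT-qPCR (SMN primers 0.4 μM final; 40 cycles) measures full-length exon 7-containing minigene mRNA, normalized to GAPDH and to vehicle; EC1.5x derived and binned by stars.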

Smn protein = Smn protein assay in cultured cells (SMN HTRF); format: cell-based, human; settings: for EC1.5x (concentration giving 1.5-fold Smn protein increase): read-out: EC1.5x for Smn protein expression
How it was run: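 Lysates in RIPA with protease inhibitors are incubated overnight at room temperature with HTRF anti-SMN antibodies. EC1.5x is derived from fold increase in ΔF over vehicle.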

[2] = HEK293H cells stably transfected with SMN2-A minigene, 24 hours, 7-point concentration curve, 1.5-fold relative to vehicle-treated cells
[3] = SMA patient fibroblast cells, 48 hours, 7-point concentration data, fold increase relative to vehicle control (SMN HTRF)
[4] = SMA Type 1 patient fibroblast cells (GM03813), 48 hours, 7-point concentration curve, SMN HTRF, concentration producing 1.5 times Smn protein vs DMSO vehicle control

| Compound | melting point [°C] | EC (1.5-fold) [1, 2] [µM] | maximum fold (Fold) increase of Smn protein (Smn protein; [3]) | EC (1.5-fold) ([1]; 24 h) [µM] | EC1.5x (concentration giving 1.5-fold Smn protein increase) (Smn protein; [4]) [nM] | maximum fold (Fold) increase of Smn protein (Smn protein) | EC1.5x (concentration giving 1.5-fold Smn protein increase) (Smn protein) [nM] |
| --- | --- | --- | --- | --- | --- | --- | --- |
| Cc1ccc2nc(-c3cc4ccc(N(C)Cc5cccnc5)cc4oc3=O)cn2c1 [Compound 221, 3-(6-methylimidazo[1,2-a]pyridin-2-yl)-7-[methyl(pyridin-3-ylmethyl)amino]-2H-chromen-2-one] | 220 to 223 | 1 to 3 | * (maximum fold increase of ≤1.2) |  |  |  |  |
| O=c1oc2cc(N3CCN4CCC3CC4)ccc2cc1-c1cn2cccnc2n1 [Compound 440, 7-(1,4-diazabicyclo[3.2.2]non-4-yl)-3-(imidazo[1,2-a]pyrimidin-2-yl)-2H-chromen-2-one] | > 300 |  | * (maximum fold increase of ≤1.2) | 1 to 3 |  |  |  |
| C[C@@H]1CN(c2ccc3cc(-c4cn5ccc(C(F)(F)F)cc5n4)c(=O)oc3c2)CCN1 [Compound 267, 7-[(3R)-3-methylpiperazin-1-yl]-3-[7-(trifluoromethyl)imidazo[1,2-a]pyridin-2-yl]-2H-chromen-2-one] | 252 to 260 | 1 to 3 | * (maximum fold increase of ≤1.2) |  |  |  |  |
| CCN1CCN(c2cc(F)c3cc(-c4cn5cc(C)nc(C)c5n4)c(=O)oc3c2)CC1 [Compound 746, 3-(6,8-dimethylimidazo[1,2-a]pyrazin-2-yl)-7-(4-ethylpiperazin-1-yl)-5-fluoro-2H-chromen-2-one] | 232 to 234 | < 0.1 | ***** (fold increase >1.65) |  | < 300 |  |  |
| Cc1cccn2cc(-c3cc4ccc(N5CCCN(C)CC5)cc4oc3=O)nc12 [Compound 246, 7-(4-methyl-1,4-diazepan-1-yl)-3-(8-methylimidazo[1,2-a]pyridin-2-yl)-2H-chromen-2-one] | 138 to 140 | 0.1 to 0.3 | *** (fold increase between >1.35 and ≤1.5) |  | 1000 to 3000 |  |  |
| Cc1cn2cc(-c3cc4ccc(N5CCN(C6CC6)CC5)cc4oc3=O)nc2cn1 [Compound 811, 7-(4-cyclopropylpiperazin-1-yl)-3-(6-methylimidazo[1,2-a]pyrazin-2-yl)-2H-chromen-2-one] | 287 to 289 | 0.3 to 1 | **** (fold increase between >1.5 and ≤1.65) |  | 300 to 1000 |  |  |
| COc1ccc(-c2cc3ccc(N4CCN[C@@H](C)C4)cc3oc2=O)cc1C [Compound 542, 3-(4-methoxy-3-methylphenyl)-7-[(3S)-3-methylpiperazin-1-yl]-2H-chromen-2-one] | 127 to 131 | 1 to 3 | * (maximum fold increase of ≤1.2) |  |  |  |  |
| O=c1oc2cc(N3CCNCC3)cc(F)c2cc1-c1ccccn1 [Compound 161, 5-fluoro-7-(piperazin-1-yl)-3-(pyridin-2-yl)-2H-chromen-2-one] | 221 to 225 |  |  | 1 to 3 |  | *** (key: *: maximum fold increase of ≤1.2; **: fold increase between >1.2 and ≤1.35; ***: fold increase between >1.35 and ≤1.5; ****: fold increase between >1.5 and ≤1.65; *****: fold increase >1.65) | 3000 to 10000 |
| Cc1csc(-c2cc3ccc(N4CCNCC4)cc3oc2=O)c1 [Compound 318, 3-(4-methylthiophen-2-yl)-7-(piperazin-1-yl)-2H-chromen-2-one] | 218 to 220 |  | * (maximum fold increase of ≤1.2) | 1 to 3 |  |  |  |
| CCC1CN(c2ccc3cc(-c4cn5cc(C)nc(C)c5n4)c(=O)oc3c2)CCN1 (stereo not drawn) [Compound 665, 3-(6,8-dimethylimidazo[1,2-a]pyrazin-2-yl)-7-(3-ethylpiperazin-1-yl)-2H-chromen-2-one] | 211 to 215 | < 0.1 | ***** (fold increase >1.65) |  | < 300 |  |  |
| CCN1CCN(c2ccc3cc(-c4cn5ccsc5n4)c(=O)oc3c2)CC1 [Compound 201, 7-(4-ethylpiperazin-1-yl)-3-(imidazo[2,1-b][1,3]thiazol-6-yl)-2H-chromen-2-one] | 202 to 205 | 0.3 to 1 | ** (fold increase between >1.2 and ≤1.35) |  |  |  |  |
| C[C@@H]1CN(c2cc(F)c3cc(-c4cn5cccc(Cl)c5n4)c(=O)oc3c2)C[C@H](C)N1 [Compound 388, 3-(8-chloroimidazo[1,2-a]pyridin-2-yl)-7-[(3R,5S)-3,5-dimethylpiperazin-1-yl]-5-fluoro-2H-chromen-2-one] | 290 to 300 | 0.3 to 1 | ** (fold increase between >1.2 and ≤1.35) |  |  |  |  |
| Cn1c(-c2cc3ccc(N4CCN(C(=O)OCc5ccccc5)CC4)cc3oc2=O)nc2ccccc21 [Compound 43, benzyl 4-[3-(1-methyl-1H-benzimidazol-2-yl)-2-oxo-2H-chromen-7-yl]piperazine-1-carboxylate] | 253 to 254 | 3 to 30 | * (maximum fold increase of ≤1.2) |  |  |  |  |
| Cc1cnc2nc(-c3cc4ccc(O[C@@H]5CCNC5)cc4oc3=O)cn2c1.Cl.Cl [Compound 327, 3-(6-methylimidazo[1,2-a]pyrimidin-2-yl)-7-[(3R)-pyrrolidin-3-yloxy]-2H-chromen-2-one hydrochloride (1:2)] | 255 to 258 | 0.3 to 1 | ** (fold increase between >1.2 and ≤1.35) |  |  |  |  |
| Cc1cn2cc(-c3cc4ccc(N5CCN6CCCCC6C5)cc4oc3=O)nc2c(C)n1 (stereo not drawn) [Compound 633, 3-(6,8-dimethylimidazo[1,2-a]pyrazin-2-yl)-7-(octahydro-2H-pyrido[1,2-a]pyrazin-2-yl)-2H-chromen-2-one] | 225 to 227 | < 0.1 | *** (fold increase between >1.35 and ≤1.5) |  |  |  |  |
| Cc1cn2cc(-c3cc4ccc(N5C[C@@H]6C[C@H]5CN6)cc4oc3=O)nc2cn1 [Compound 623, 7-[(1S,4S)-2,5-diazabicyclo[2.2.1]hept-2-yl]-3-(6-methylimidazo[1,2-a]pyrazin-2-yl)-2H-chromen-2-one] | 225 to 227 | < 0.1 | *** (fold increase between >1.35 and ≤1.5) |  | 300 to 1000 |  |  |
| Cc1ccn2nc(-c3cc4ccc(N5CCCN(C)CC5)cc4oc3=O)cc2c1 [Compound 310, 7-(4-methyl-1,4-diazepan-1-yl)-3-(5-methylpyrazolo[1,5-a]pyridin-2-yl)-2H-chromen-2-one] | 175 to 177 | 0.3 to 1 | ** (fold increase between >1.2 and ≤1.35) |  |  |  |  |
| COc1ccc(-c2cc3ccc(N4CCN[C@@H](C)C4)cc3oc2=O)cc1 [Compound 449, 3-(4-methoxyphenyl)-7-[(3S)-3-methylpiperazin-1-yl]-2H-chromen-2-one] | 123 to 126 | 1 to 3 | * (maximum fold increase of ≤1.2) |  |  |  |  |
| Cc1cn2cc(-c3cc4ccc(N5CCN(C6CCC6)CC5)cc4oc3=O)nc2c(C)n1 [Compound 822, 7-(4-cyclobutylpiperazin-1-yl)-3-(6,8-dimethylimidazo[1,2-a]pyrazin-2-yl)-2H-chromen-2-one] | 260 to 262 | < 0.1 | **** (fold increase between >1.5 and ≤1.65) |  | < 300 |  |  |
| CCN1CCC(c2ccc3cc(-c4cn5cc(C)nc(C)c5n4)c(=O)oc3c2)CC1 [Compound 749, 3-(6,8-dimethylimidazo[1,2-a]pyrazin-2-yl)-7-(1-ethylpiperidin-4-yl)-2H-chromen-2-one] | 218 to 223 | < 0.1 | ***** (fold increase >1.65) |  | < 300 |  |  |
| COc1cc(-c2cc3ccc(N4CCN[C@@H](C)C4)cc3oc2=O)ccc1F [Compound 577, 3-(4-fluoro-3-methoxyphenyl)-7-[(3S)-3-methylpiperazin-1-yl]-2H-chromen-2-one] | 189 to 191 | 1 to 3 | ** (fold increase between >1.2 and ≤1.35) |  |  |  |  |
| O=c1oc2cc(N3CCNCC3)ccc2cc1-c1cn2cccc(Cl)c2n1 [Compound 83, 3-(8-chloroimidazo[1,2-a]pyridin-2-yl)-7-(piperazin-1-yl)-2H-chromen-2-one] | 196 to 198 | 0.3 to 1 | **** (fold increase between >1.5 and ≤1.65) |  | 1000 to 3000 |  |  |
| C[C@@H]1CN(c2ccc3cc(-c4cc5ccccn5n4)c(=O)oc3c2)C[C@H](C)N1 [Compound 189, 7-[(3R,5S)-3,5-dimethylpiperazin-1-yl]-3-(pyrazolo[1,5-a]pyridin-2-yl)-2H-chromen-2-one] | 188 to 190 | 1 to 3 | ** (fold increase between >1.2 and ≤1.35) |  |  |  |  |
